# From patent publication US20250144067A1, “PERSONALIZED STARVATION THERAPY FOR CANCER” (Faeth Therapeutics, Inc., priority 2021, published 2025)
# Counter-ions that a name gives are not always drawn. Like-named read-outs stand apart in the source and are kept apart here.
# Assays:
# [1] = test system: NCI-H292 lung cancer cells; experiment: FDA drug screening, complete media vs cholesterol-free media without statin (TABLE 1); type: cell-based, human
# [2] = test system: NCI-H292 lung cancer cells; experiment: FDA drug screening, complete media vs cholesterol-free media with simvastatin (TABLE 2); type: cell-based, human
# [3] = NCI-H292 cells, cholesterol-free media without statin
# [4] = complete vs cholesterol-free media, greater than 0 enhanced anti-cancer activity, about 0 neutral, below 0 antagonists
# [5] = NCI-H292 cells, cholesterol-free media with simvastatin 0.04 μM, cell growth value in FDA drug screen
# [6] = NCI-H292 cells, complete media, cell growth value in FDA drug screen
# [7] = complete media minus cholesterol-free media + simvastatin, >0 enhanced anti-cancer activity, about 0 neutral, <0 antagonist
# [8] = Complete minus Cholesterol-free, greater than 0 enhanced anti-cancer activity, about 0 neutral, below 0 antagonists
# [9] = NCI-H292 cells in cholesterol-free media without statin
# [10] = NCI-H292 cells in complete media
# [11] = NCI-H292 cells, FDA drug library screen, cholesterol-free media with simvastatin 0.04 μM
# [12] = NCI-H292 cells, FDA drug library screen, complete media
# [13] = complete media vs cholesterol-free media + simvastatin (0.04 μM), >0 enhanced anti-cancer activity, about 0 neutral, <0 antagonist
# [14] = Complete minus Cholesterol-free, >0 enhanced anti-cancer activity, about 0 neutral, <0 antagonist
# [15] = NCI-H292 cells, cholesterol-free media without statin, FDA drug library screen
# [16] = NCI-H292 cells, complete media, FDA drug library screen
# [17] = complete vs cholesterol-free media, >0 enhanced anti-cancer activity, about 0 neutral, <0 antagonist
# [18] = NCI-H292 cells, FDA library drug in cholesterol-free media with simvastatin 0.04 μM
# [19] = NCI-H292 cells, FDA library drug in complete media
# [20] = Complete minus Cholesterol-free, greater than 0 enhanced anti-cancer activity, about 0 neutral, below 0 antagonist
# [21] = NCI-H292 cells, FDA drug library screen, cholesterol-free media without statin
# [22] = NCI-H292 cells, drug in cholesterol-free media with simvastatin 0.04 μM
# [23] = NCI-H292 cells, drug in complete media
# [24] = NCI-H292 cells, cholesterol-free media with simvastatin 0.04 μM, FDA drug library screen (TABLE 2)
# [25] = NCI-H292 cells, complete media, FDA drug library screen (TABLE 2)
# [26] = complete media minus cholesterol-free media + simvastatin (0.04 μM), >0 enhanced anti-cancer activity, about 0 neutral, <0 antagonist
compound,measurement,setting,value
C[C@@H]1C[C@H]2[C@@H]3C[C@H](F)C4=CC(=O)C=C[C@]4(C)[C@@]3(F)[C@@H](O)C[C@]2(C)[C@@]1(OC(=O)c1ccco1)C(=O)SCF [Fluticasone furoate],Cholesterol-free,[1]; [3],1.047
same,Complete,"[1]; NCI-H292 cells, complete media",0.6144
same,Difference,[1]; [4],−0.43
same,Cholesterol-free media + simvastatin (0.04 μM),[2]; [5],0.7104
same,Complete Media,[2]; [6],0.7486
same,Difference,[2]; [7],0.04
COc1ccc(C(=O)CC(=O)c2ccc(C(C)(C)C)cc2)cc1 [Avobenzone],Difference,[1]; [8],−0.48
same,Cholesterol-free,[1]; [9],1.457
same,Complete,[1]; [10],0.9767
same,Cholesterol-free media + simvastatin (0.04 μM),[2]; [11],1.07
same,Complete Media,[2]; [12],0.9672
same,Difference,[2]; [13],−0.10
Cc1ncc(C[n+]2csc(CCO)c2C)c(N)n1 [Thiamine monochloride],Difference,[1]; [14],−0.23
same,Cholesterol-free,[1]; [3],0.9486
same,Complete,"[1]; NCI-H292 cells, complete media",0.7138
same,Cholesterol-free media + simvastatin (0.04 μM),[2]; [11],1.042
same,Complete Media,[2]; [12],0.9007
same,Difference,[2]; [13],−0.14
CN1[C@@H](CC(=O)c2ccccc2)CCC[C@H]1C[C@H](O)c1ccccc1 [Lobeline (hydrochloride)],Cholesterol-free,[1]; [15],0.6538
same,Complete,[1]; [16],1.202
same,Difference,[1]; [17],0.55
same,Cholesterol-free media + simvastatin (0.04 μM),[2]; [18],1.408
same,Complete Media,[2]; [19],1.116
same,Difference,[2]; [13],−0.29
CCCCS(=O)(=O)N[C@@H](Cc1ccc(OCCCCC2CCNCC2)cc1)C(=O)O [Tirofiban (hydrochloride monohydrate)],Difference,[1]; [8],−0.96
same,Cholesterol-free,[1]; [9],1.842
same,Complete,[1]; [10],0.8788
same,Cholesterol-free media + simvastatin (0.04 μM),[2]; [11],1.824
same,Complete Media,[2]; [12],1.693
same,Difference,[2]; [13],−0.13
Cc1nc2c([nH]1)-c1ccccc1N(C(=O)c1ccc(NC(=O)c3ccccc3-c3ccccc3)cc1)CC2 [Conivaptan (hydrochloride)],Difference,[1]; [8],−0.65
same,Cholesterol-free,[1]; [9],1.641
same,Complete,[1]; [10],0.989
same,Cholesterol-free media + simvastatin (0.04 μM),[2]; [11],1.147
same,Complete Media,[2]; [12],1.002
same,Difference,[2]; [13],−0.15
CC(=O)N[C@@H](Cc1ccc(O)cc1)C(=O)O [N-Acetyl-L-tyrosine],Difference,[1]; [20],−0.16
same,Cholesterol-free,[1]; [21],1.221
same,Complete,[1]; [12],1.059
same,Cholesterol-free media + simvastatin (0.04 μM),[2]; [11],1.348
same,Complete Media,[2]; [12],1.218
same,Difference,[2]; [13],−0.13
COC(=O)Nc1nc2ccc(C(=O)c3ccccc3)cc2[nH]1 [Mebendazole],Cholesterol-free,[1]; [15],0.1458
same,Complete,[1]; [16],0.3848
same,Difference,[1]; [17],0.24
same,Cholesterol-free media + simvastatin (0.04 μM),[2]; [5],0.4675
same,Complete Media,[2]; [6],0.5846
same,Difference,[2]; [7],0.12
COc1cc(O)c(C(=O)Nc2nc(C(=O)NCCN(C(C)C)C(C)C)cs2)cc1OC,Difference,[1]; [8],−0.47
same,Cholesterol-free,[1]; [9],1.419
same,Complete,[1]; [10],0.9453
same,Cholesterol-free media + simvastatin (0.04 μM),[2]; [22],1.16
same,Complete Media,[2]; [23],0.9105
same,Difference,[2]; [13],−0.25
Sildenafil (citrate),Difference,[1]; [8],−0.63
same,Cholesterol-free,[1]; [9],1.504
same,Complete,[1]; [10],0.8696
same,Cholesterol-free media + simvastatin (0.04 μM),[2]; [24],0.9766
same,Complete Media,[2]; [25],0.9106
same,Difference,[2]; [26],−0.07
O=C(Nc1cccc2c(=O)cc(-c3nnn[nH]3)oc12)c1ccc(OCCCCc2ccccc2)cc1 [Pranlukast],Difference,[1]; [20],−0.10
same,Cholesterol-free,[1]; [21],0.9973
same,Complete,[1]; [12],0.8953
same,Cholesterol-free media + simvastatin (0.04 μM),[2]; [11],0.7995
same,Complete Media,[2]; [12],1.23
same,Difference,[2]; [7],0.43
CC[C@H]1CN2CCc3cc(OC)c(OC)cc3[C@@H]2C[C@@H]1C[C@H]1NCCc2cc(OC)c(OC)cc21 [Emetine (dihydrochloride hydrate)],Cholesterol-free,[1],0.02305
same,Complete,[1],0.04288
same,Difference,[1],0.02
same,Cholesterol-free media + simvastatin (0.04 μM),[2],0.05048
same,Complete Media,[2],0.03214
same,Difference,[2],−0.02
CC(=O)N1CCN(c2ccc(OCC3COC(Cn4ccnc4)(c4ccc(Cl)cc4Cl)O3)cc2)CC1 (stereo not drawn) [Ketoconazole],Cholesterol-free,[1]; [3],1.003
same,Complete,"[1]; NCI-H292 cells, complete media",0.6148
same,Difference,[1]; [4],−0.39
same,Cholesterol-free media + simvastatin (0.04 μM),[2]; [11],0.2012
same,Complete Media,[2]; [12],0.801
same,Difference,[2]; [7],0.60
Cn1nnnc1SCC1=C(C(=O)[O-])N2C(=O)[C@@H](NC(=O)[C@H](O)c3ccccc3)[C@H]2SC1.[Na+] [Cefamandole (sodium)],Difference,[1]; [20],−0.12
same,Cholesterol-free,[1]; [21],1.243
same,Complete,[1]; [12],1.12
same,Cholesterol-free media + simvastatin (0.04 μM),[2]; [18],2.169
same,Complete Media,[2]; [19],1.429
same,Difference,[2]; [13],−0.74
COc1ccc2[n-]c([S+]([O-])Cc3ncc(C)c(OC)c3C)nc2c1.[Na+] (stereo not drawn) [Omeprazole (sodium)],Difference,[1]; [14],−0.07
same,Cholesterol-free,[1]; [15],0.7641
same,Complete,[1]; [16],0.6989
same,Cholesterol-free media + simvastatin (0.04 μM),[2]; [24],0.9544
same,Complete Media,[2]; [25],0.9688
same,Difference,[2]; [26],0.01
CN1[C@@H]2CC[C@H]1C[C@@H](OC(=O)c1c[nH]c3ccccc13)C2 [Tropisetron (Hydrochloride)],Difference,[1]; [14],−0.30
same,Cholesterol-free,[1]; [3],1.166
same,Complete,"[1]; NCI-H292 cells, complete media",0.8628
same,Cholesterol-free media + simvastatin (0.04 μM),[2]; [11],1.118
same,Complete Media,[2]; [12],0.9866
same,Difference,[2]; [13],−0.13
COc1cccc2c1C(=O)c1c(O)c3c(c(O)c1C2=O)C[C@@](O)(C(=O)CO)C[C@@H]3O[C@H]1C[C@H](N)[C@H](O)[C@H](C)O1 [Doxorubicin (hydrochloride)],Cholesterol-free,[1]; [15],−0.08252
same,Complete,[1]; [16],−0.006007
same,Difference,[1]; [17],0.08
same,Cholesterol-free media + simvastatin (0.04 μM),[2]; [24],0.09054
same,Complete Media,[2]; [25],0.01994
same,Difference,[2]; [26],−0.07
CS(=O)(=O)n1cc2c(n1)CN([C@H]1CO[C@H](c3cc(F)ccc3F)[C@@H](N)C1)C2 [Omarigliptin],Difference,[1]; [8],−0.63
same,Cholesterol-free,[1]; [9],1.475
same,Complete,[1]; [10],0.8446
same,Cholesterol-free media + simvastatin (0.04 μM),[2]; [18],1.764
same,Complete Media,[2]; [19],1.42
same,Difference,[2]; [13],−0.34
Cc1cccc(C)c1OCC(C)N (stereo not drawn) [Mexiletine (hydrochloride)],Difference,[1]; [14],−0.20
same,Cholesterol-free,[1]; [3],1.086
same,Complete,"[1]; NCI-H292 cells, complete media",0.8848
same,Cholesterol-free media + simvastatin (0.04 μM),[2]; [11],1.005
same,Complete Media,[2]; [12],0.8858
same,Difference,[2]; [13],−0.12
OC[C@@H](O)[C@@H](O[C@@H]1O[C@H](CO)[C@H](O)[C@H](O)[C@H]1O)[C@H](O)[C@@H](O)CO [Lactitol (monohydrate)],Difference,[1]; [20],−0.17
same,Cholesterol-free,[1]; [21],1.059
same,Complete,[1]; [12],0.8908
same,Cholesterol-free media + simvastatin (0.04 μM),[2]; [5],1.183
same,Complete Media,[2]; [6],1.215
same,Difference,[2]; [7],0.03
COc1cc2nccc(Oc3ccc(NC(=O)C4(C(=O)Nc5ccc(F)cc5)CC4)cc3)c2cc1OC [Cabozantinib],Difference,[1]; [20],−0.08
same,Cholesterol-free,[1]; [21],1.023
same,Complete,[1]; [12],0.943
same,Cholesterol-free media + simvastatin (0.04 μM),[2]; [24],1.169
same,Complete Media,[2]; [25],1.161
same,Difference,[2]; [26],−0.01
O=C1NC(=O)C(c2ccccc2)(c2ccccc2)N1 [Phenytoin],Cholesterol-free,[1]; [15],0.8044
same,Complete,[1]; [16],0.8965
same,Difference,[1]; [17],0.09
same,Cholesterol-free media + simvastatin (0.04 μM),[2]; [11],1.316
same,Complete Media,[2]; [12],1.23
same,Difference,[2]; [13],−0.09
O=NN(CCCl)C(=O)NCCCl [Carmustine],Difference,"[1]; Complete minus Cholesterol-free, […]",−0.25
same,Cholesterol-free,[1]; [3],0.9766
same,Complete,"[1]; NCI-H292 cells, complete media",0.7259
same,Cholesterol-free media + simvastatin (0.04 μM),[2]; [11],1.071
same,Complete Media,[2]; [12],1.247
same,Difference,"[2]; complete media minus cholesterol-free media + simvastatin, […]",0.18
CC[C@H]1OC(=O)[C@H](C)[C@@H](O[C@H]2C[C@@](C)(OC)[C@@H](O)[C@H](C)O2)[C@H](C)[C@@H](O[C@@H]2O[C@H](C)C[C@H](N(C)C)[C@H]2O)[C@](C)(O)C[C@@H](C)CN(C)[C@H](C)[C@@H](O)[C@]1(C)O [Azithromycin],Difference,[1]; [14],0.05
same,Cholesterol-free,[1]; [15],1.249
same,Complete,[1]; [16],1.303
same,Cholesterol-free media + simvastatin (0.04 μM),[2]; [22],1.336
same,Complete Media,[2]; [23],1.162
same,Difference,[2]; [13],−0.17
Cn1c(=O)cc(N2CCC[C@@H](N)C2)n(Cc2cc(F)ccc2C#N)c1=O [Trelagliptin],Difference,[1]; [14],−0.22
same,Cholesterol-free,[1]; [3],0.9224
same,Complete,"[1]; NCI-H292 cells, complete media",0.705
same,Cholesterol-free media + simvastatin (0.04 μM),[2]; [5],1.142
same,Complete Media,[2]; [6],1.234
same,Difference,[2]; [7],0.09
Cc1ncc([N+](=O)[O-])n1CCO [Metronidazole],Difference,[1]; [14],−0.03
same,Cholesterol-free,[1]; [15],1.006
same,Complete,[1]; [16],0.9754
same,Cholesterol-free media + simvastatin (0.04 μM),[2]; [18],1.741
same,Complete Media,[2]; [19],1.475
same,Difference,[2]; [13],−0.27
COc1ccc2c(c1)N(C[C@H](C)CN(C)C)c1ccccc1S2 [Levomepromazine],Difference,[1]; [14],0.01
same,Cholesterol-free,[1]; [15],0.8962
same,Complete,[1]; [16],0.9041
same,Cholesterol-free media + simvastatin (0.04 μM),[2]; [11],0.8554
same,Complete Media,[2]; [12],1.084
same,Difference,[2]; [7],0.23
